{"source": "PubChem BioAssay AID2060906", "about": "(Molecular Pharmacology Branch, DTP, NCI, 2025)", "tested_on": "485176-168-R4-J1-PDC complex spheroid growth", "assay": "Anticancer human tumor 485176-168-R4-J1-PDC patient-derived pancreatic adenocarcinoma cell line growth inhibition [RAS]", "conditions": "for IC50: curve of first compound; for viability, T/C: stronger effect = lower value", "excerpt": "RAS pathway inhibitors in Combinations in Complex Spheroids\nA high-throughput screen of multi-cell type tumor spheroids was designed to identify active combinations of RAS pathway inhibitors and targeted small molecules. Complex spheroids include a stromal component modeled by human endothelial cells (HUVEC) and fibroblasts modeled by human mesenchymal stem cells (MSCs). The concentration ranges selected for each drug and investigational agent were based upon clinically achievable concentrations if the clinical Cmax of the agent was known.\nCompounds. The drugs and investigational agents: abemaciclib (NSC768073), cobimetinib (NSC768068), divarasib (GDC6063, NSC841802), docetaxel (NSC628503), GDC-1971 (RLY-1971, NSC841576), gemcitabine (NSC613327), inavolisib (NSC800729), ipatasertib (NSC767898), KB-0742 (NSC834161), MRTX-1133 (NSC836407), osimertinib (NSC779217), RMC-4630 (NSC839698), RMC-6236 (NSC851965), RMC-6291 (NSC852671), Ro-3306 (NSC812927), sapanisertib (NSC764658), SN-38 (NSC673596), staurosporine (NSC755774), SY5609 (NSC837396), and tovorafenib (DAY101, NSC766906), were obtained from the National Cancer Institute (NCI) Developmental Therapeutics Program Chemical Repository. The FDA-approved anticancer drug set is available from the NCI Developmental Therapeutics Program. […] The stock solutions were prepared in dimethyl sulfoxide (DMSO, Sigma-Aldrich, St. Louis, MO, cat. D2650) at 800-fold the tested concentration and stored at -70 degrees C prior to their use. All drugs and investigational agents were tested over a range starting from a high concentration at or near the clinical Cmax and decreasing in half-log increments. If the clinical Cmax for an agent had not been determined, the highest concentration tested was 10 microM.\nCell Culture. All cells were maintained in an incubator at 37 degrees C and 5% CO2 with 95% humidity. The PDC lines were cultured according to standard operating procedures established by the NCI PDMR. All PDCs were thawed and cultured in Matrigel-coated flasks prepared with a working solution of 1X Ham's F-12 nutrient mix, without supplementation (Invitrogen, Waltham, MA, cat. 11765054), 100 U/mL penicillin-streptomycin (Invitrogen, cat. 15140122), and 2.5% Matrigel (Corning Inc., Corning, NY, cat. 354248) for the first three passages. The 362531-283-R-J2-PDC and 782815-120-R-J1-PDC lines were cultured in 6C/Colon 1B media, which includes advanced DMEM/F-12 (Thermo Fisher Scientific, cat. 12634028), 10 mM HEPES (Thermo Fisher Scientific, cat. 15630080), 1X GlutaMAX supplement (Thermo Fisher Scientific, cat. 35050061), 0.1 mg/mL primocin (InvivoGen, San Diego, CA, cat. ant-pm-2), 10% defined fetal bovine serum, heat inactivated (HyClone Laboratories Inc., Logan, UT, cat. SH30070.03HI), 50% L-WRN conditioned media (ATCC, cat. CRL-3276), 1.25 mM N-Acetyl-L-cysteine (Sigma-Aldrich, cat. A9165), 10 mM nicotinamide (Sigma-Aldrich, cat. N0636), 1X B-27 supplement (Thermo Fisher Scientific, cat. 17504044), 1X N-2 supplement (Thermo Fisher Scientific, cat. 17502048), 50 ng/mL human EGF (Thermo Fisher Scientific, cat. PHG0311), and 10 microM Y-27632 dihydrochloride (Tocris Bioscience, cat. 1254). The K12877-001-R-J1-PDC line was cultured in 6I media, which includes all 6C/Colon 1B media plus 10 ng/mL human FGF-10 (PeproTech, cat. 100-26), 1 ng/mL human FGF-2 (PeproTech, cat. 100-18B), 1 µM prostaglandin E2 (Tocris Bioscience, cat. 2296), […] hydrocortisone (Sigma-Aldrich, cat. H4001), and […] bovine insulin (Sigma-Aldrich, cat. I6634). The K86415-001-R-J1-PDC line was cultured in 6D media, which includes all 6C/Colon 1B media components minus the L-WRN conditioned media. The 485176-168-R4-J1-PDC was cultured in PANC media, which includes all 6C/Colon 1B media plus 100 ng/mL human FGF-10 (PeproTech, cat. 100-26), 500 nM SB-431542 (Selleckchem, cat. S1067), and 10 nM gastrin (Tocris Bioscience, cat. 3006). […]"}
{"compound": "CC(C)NCC(C(=O)N1CCN(c2ncnc3c2C(C)CC3O)CC1)c1ccc(Cl)cc1", "note": "(configuration not stated) + CCn1c(-c2cc(N3CCN(C)CC3)cnc2C(C)OC)c2c3cc(ccc31)-c1csc(n1)CC(NC(=O)C1CC1C)C(=O)N1CCCC(N1)C(=O)OCC(C)(C)C2;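 note: spheroids exposed to compounds for seven days before readout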;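 for viability, T/C: luminescence viability expressed relative to DMSO vehicle wells set as 100%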", "values": [{"measurement": "IC50", "setting": "second compound 0.000949 µM", "result": 2330, "unit": "nM"}, {"measurement": "IC50", "setting": "second compound 0.003 µM", "result": 3710, "unit": "nM"}, {"measurement": "IC50", "setting": "second compound 0.00949 µM", "result": 1650, "unit": "nM"}, {"measurement": "IC50", "setting": "second compound 0.03 µM", "result": 847, "unit": "nM"}, {"measurement": "IC50", "setting": "second compound 0.0949 µM", "result": 721, "unit": "nM"}, {"measurement": "IC50", "setting": "second compound 0.3 µM", "result": 790, "unit": "nM"}, {"measurement": "viability, T/C", "setting": "second compound 0.000949 µM, first compound 0.0316 µM", "result": 116, "unit": "%"}, {"measurement": "viability, T/C", "setting": "second compound 0.000949 µM, first compound 0.1 µM", "result": 99.5, "unit": "%"}, {"measurement": "viability, T/C", "setting": "second compound 0.000949 µM, first compound 0.316 µM", "result": 78.7, "unit": "%"}, {"measurement": "viability, T/C", "setting": "second compound 0.000949 µM, first compound 1 µM", "result": 64.8, "unit": "%"}, {"measurement": "viability, T/C", "setting": "second compound 0.000949 µM, first compound 3.16 µM", "result": 43.6, "unit": "%"}, {"measurement": "viability, T/C", "setting": "second compound 0.000949 µM, first compound 10 µM", "result": 33, "unit": "%"}, {"measurement": "viability, T/C", "setting": "second compound 0.003 µM, first compound 0.0316 µM", "result": 82.2, "unit": "%"}, {"measurement": "viability, T/C", "setting": "second compound 0.003 µM, first compound 0.1 µM", "result": 101, "unit": "%"}, {"measurement": "viability, T/C", "setting": "second compound 0.003 µM, first compound 0.316 µM", "result": 74.3, "unit": "%"}, {"measurement": "viability, T/C", "setting": "second compound 0.003 µM, first compound 1 µM", "result": 65, "unit": "%"}, {"measurement": "viability, T/C", "setting": "second compound 0.003 µM, first compound 3.16 µM", "result": 55.1, "unit": "%"}, {"measurement": "viability, T/C", "setting": "second compound 0.003 µM, first compound 10 µM", "result": 38.8, "unit": "%"}, {"measurement": "viability, T/C", "setting": "second compound 0.00949 µM, first compound 0.0316 µM", "result": 97.9, "unit": "%"}, {"measurement": "viability, T/C", "setting": "second compound 0.00949 µM, first compound 0.1 µM", "result": 79.7, "unit": "%"}, {"measurement": "viability, T/C", "setting": "second compound 0.00949 µM, first compound 0.316 µM", "result": 82.4, "unit": "%"}, {"measurement": "viability, T/C", "setting": "second compound 0.00949 µM, first compound 1 µM", "result": 56.8, "unit": "%"}, {"measurement": "viability, T/C", "setting": "second compound 0.00949 µM, first compound 3.16 µM", "result": 38.7, "unit": "%"}, {"measurement": "viability, T/C", "setting": "second compound 0.00949 µM, first compound 10 µM", "result": 32.3, "unit": "%"}, {"measurement": "viability, T/C", "setting": "second compound 0.03 µM, first compound 0.0316 µM", "result": 94.7, "unit": "%"}, {"measurement": "viability, T/C", "setting": "second compound 0.03 µM, first compound 0.1 µM", "result": 73.8, "unit": "%"}, {"measurement": "viability, T/C", "setting": "second compound 0.03 µM, first compound 0.316 µM", "result": 81.2, "unit": "%"}, {"measurement": "viability, T/C", "setting": "second compound 0.03 µM, first compound 1 µM", "result": 44.4, "unit": "%"}, {"measurement": "viability, T/C", "setting": "second compound 0.03 µM, first compound 3.16 µM", "result": 40.5, "unit": "%"}, {"measurement": "viability, T/C", "setting": "second compound 0.03 µM, first compound 10 µM", "result": 31.7, "unit": "%"}, {"measurement": "viability, T/C", "setting": "second compound 0.0949 µM, first compound 0.0316 µM", "result": 81.3, "unit": "%"}, {"measurement": "viability, T/C", "setting": "second compound 0.0949 µM, first compound 0.1 µM", "result": 67.9, "unit": "%"}, {"measurement": "viability, T/C", "setting": "second compound 0.0949 µM, first compound 0.316 µM", "result": 70.3, "unit": "%"}, {"measurement": "viability, T/C", "setting": "second compound 0.0949 µM, first compound 1 µM", "result": 41.3, "unit": "%"}, {"measurement": "viability, T/C", "setting": "second compound 0.0949 µM, first compound 3.16 µM", "result": 35.5, "unit": "%"}, {"measurement": "viability, T/C", "setting": "second compound 0.0949 µM, first compound 10 µM", "result": 26.8, "unit": "%"}, {"measurement": "viability, T/C", "setting": "second compound 0.3 µM, first compound 0.0316 µM", "result": 72.2, "unit": "%"}, {"measurement": "viability, T/C", "setting": "second compound 0.3 µM, first compound 0.1 µM", "result": 72.1, "unit": "%"}, {"measurement": "viability, T/C", "setting": "second compound 0.3 µM, first compound 0.316 µM", "result": 57.5, "unit": "%"}, {"measurement": "viability, T/C", "setting": "second compound 0.3 µM, first compound 1 µM", "result": 46.4, "unit": "%"}, {"measurement": "viability, T/C", "setting": "second compound 0.3 µM, first compound 3.16 µM", "result": 38.4, "unit": "%"}, {"measurement": "viability, T/C", "setting": "second compound 0.3 µM, first compound 10 µM", "result": 26.8, "unit": "%"}]}
